Test results published in patent US9260419B2, “Polymorphic salt of a metap-2 inhibitor and methods of making and using same” (Zafgen, Inc., priority 2012, dated 2016).
Where a name gives a salt, the structure may show the parent alone.

Experiments:
[1] = challenge stability study, stability-indicating HPLC assay and physical description; format: physicochemical; conditions: sealed vials
Experimental: A challenge stability study was carried out with amorphous and crystalline forms. Samples were stored in sealed vials and stored at room temperature (25° C.) and 40° C. Samples were assayed at various times with a stability-indicating HPLC assay. Retained potency was determined and physical description was observed.

[2] = relative stability of crystalline forms; format: physicochemical
[3] = 25° C., 8 days, hemioxalate salt
[4] = 25° C., 12 days, hemioxalate salt
[5] = 40° C., 5 days, hemioxalate salt

| Structure (SMILES) | % Purity (by peak area) [1, 3] [%] | Physical Description [1, 3] | % Purity (by peak area) [1, 4] [%] | Physical Description [1, 4] | % Purity (by peak area) [1, 5] [%] | Physical Description [1, 5] | Physical Description ([1]; Time zero) | % Purity (by peak area) ([1]; Time zero, hemioxalate salt) [%] | stability relative to Form A [2] |
| --- | --- | --- | --- | --- | --- | --- | --- | --- | --- |
| CO[C@@H]1[C@H](OC(=O)/C=C/c2ccc(OCCN(C)C)cc2)CCC2(CO2)[C@H]1C1(C)OC1CC=C(C)C (some centres unmarked) [Amorphous, 6-O-(4-dimethylaminoethoxy)cinnamoyl fumagillol hemioxalate salt] | 86.58 | White powder | 83.88 | White powder | 86.91 | White powder | Free flowing | 94.98 |  |
| CO[C@@H]1[C@H](OC(=O)/C=C/c2ccc(OCCN(C)C)cc2)CCC2(CO2)[C@H]1C1(C)OC1CC=C(C)C (some centres unmarked) [Crystalline, 6-O-(4-dimethylaminoethoxy)cinnamoyl fumagillol hemioxalate salt] | 97.86 | Free flowing | 97.84 | Free flowing | 97.72 | Free flowing | Free flowing | 97.91 |  |
| CO[C@@H]1[C@H](OC(=O)/C=C/c2ccc(OCCN(C)C)cc2)CCC2(CO2)[C@H]1C1(C)OC1CC=C(C)C (some centres unmarked) [Form B, 6-O-(4-dimethylaminoethoxy)cinnamoyl fumagillol hemioxalate] |  |  |  |  |  |  |  |  | metastable relative to Form A |
